Experimental data reported in patent publication US8178517B2, “6-methylvitamin D3 analogs and their uses” (Wisconsin Alumni Research Foundation, priority 2009, dated 2012).

Experiments:
HL-60 cells = assay: HL-60 differentiation (nitro blue tetrazolium reduction); type: cell-based, human; details: for EC50: Homo sapiens, HL-60 cells, differentiation into monocytes, FIG. 2, read-out: EC50, HL-60 cell differentiation
Method: Serial dilutions were prepared so that a range of drug concentrations could be tested without changing the final concentration of ethanol (≦0.2%) present in the cell cultures.
Human promyelocytic leukemia (HL60) cells were grown in RPMI-1640 medium containing 10% fetal bovine serum. The cells were incubated at 37° C. in the presence of 5% CO2.
HL60 cells were plated at 1.2×10^5 cells/ml. Eighteen hours after plating, cells in duplicate were treated with drug. Four days later, the cells were harvested and a nitro blue tetrazolium reduction assay was performed (Collins et al., 1979; J. Exp. Med. 149:969-974). The percentage of differentiated cells was determined by counting a total of 200 cells and recording the number that contained intracellular black-blue formazan deposits. Verification of differentiation to monocytic cells was determined by measuring phagocytic activity (data not shown).

[1] = tested on: vitamin D-deficient rats on a low calcium diet; assay: Bone calcium mobilization (serum calcium) in vitamin D-deficient rats; type: in vivo, rat; details: for serum calcium (bone calcium mobilization): 7020 pmol/day ip for 4 consecutive days, rats on 0.02% Ca diet
Method: (§1) Intestinal Calcium Transport and Bone Calcium Mobilization
(§2) Male, weanling Sprague-Dawley rats were placed on Diet 11 (0.47% Ca) diet+AEK oil for one week followed by Diet 11 (0.02% Ca)+AEK oil for 3 weeks. The rats were then switched to a diet containing 0.47% Ca for one week followed by two weeks on a diet containing 0.02% Ca. Dose administration began during the last week on 0.02% calcium diet. Four consecutive ip doses were given approximately 24 hours apart. Twenty-four hours after the last dose, blood was collected from the severed neck and the concentration of serum calcium determined as a measure of bone calcium mobilization. The first 10 cm of the intestine was also collected for intestinal calcium transport analysis using the everted gut sac method.

[2] = tested on: vitamin D-deficient rats on a low calcium diet; assay: Intestinal calcium transport, everted gut sac method; type: in vivo, rat; details: for intestinal calcium transport activity (everted gut sac): 7020 pmol/day for 4 consecutive days
Method: as §1, §2

[3] = tested on: 24-hydroxylase (24Ohase) gene promoter; assay: In vitro transcription assay (24-hydroxylase promoter luciferase reporter in ROS 17/2.8 bone cells); type: cell-based; details: for EC50: ROS 17/2.8 bone cells, luciferase reporter, FIG. 3, read-out: EC50, transcriptional activity in bone cells (24-hydroxylase gene)
Method: In Vitro Transcription Assay
Transcription activity was measured in ROS 17/2.8 (bone) cells that were stably transfected with a 24-hydroxylase (24Ohase) gene promoter upstream of a luciferase reporter gene (Arbour et al., 1998). Cells were given a range of doses. Sixteen hours after dosing the cells were harvested and luciferase activities were measured using a luminometer.
RLU=relative luciferase units.

[4] = molecular target: T1, full-length recombinant rat vitamin D receptor (Rattus norvegicus, UniProt P13053); assay: biochemical
T1 sequence (P13053 1-423): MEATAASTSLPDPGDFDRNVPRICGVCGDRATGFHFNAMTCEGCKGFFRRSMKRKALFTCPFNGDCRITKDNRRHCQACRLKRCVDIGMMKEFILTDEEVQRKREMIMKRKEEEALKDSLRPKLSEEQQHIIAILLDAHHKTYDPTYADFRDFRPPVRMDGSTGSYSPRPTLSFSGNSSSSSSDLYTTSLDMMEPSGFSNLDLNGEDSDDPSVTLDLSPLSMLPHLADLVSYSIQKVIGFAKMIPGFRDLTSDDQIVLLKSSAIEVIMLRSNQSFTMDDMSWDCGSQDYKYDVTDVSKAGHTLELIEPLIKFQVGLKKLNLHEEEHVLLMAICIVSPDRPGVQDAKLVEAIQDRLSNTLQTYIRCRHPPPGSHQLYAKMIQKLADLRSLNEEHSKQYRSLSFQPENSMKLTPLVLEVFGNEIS
Description: Vitamin D Receptor Binding
Full-length recombinant rat receptor was expressed in E. coli BL21 (DE3) Codon Plus RIL cells and purified to homogeneity using two different column chromatography systems. The first system was a nickel affinity resin that utilizes the C-terminal histidine tag on this protein. The protein that was eluted from this resin was further purified using ion exchange chromatography (S-Sepharose Fast Flow). Aliquots of the purified protein were quick frozen in liquid nitrogen and stored at −80° C. until use. For use in binding assays, the protein was diluted in TEDK50 (50 mM Tris, 1.5 mM EDTA, pH7.4, 5 mM DTT, 150 mM KCl) with 0.1% Chaps detergent.
Radiolabeled and unlabeled ligands were added to 100 mcl of the diluted protein at a final ethanol concentration of ≦10%, mixed and incubated overnight on ice to reach binding equilibrium. The following day, 100 mcl of hydroxylapatite slurry (50%) was added to each tube and mixed at 10-minute intervals for 30 minutes. The hydroxylapaptite was collected by centrifugation and then washed three times with Tris-EDTA buffer (50 mM Tris, 1.5 mM EDTA, pH 7.4) containing 0.5% Titron X-100. […] Total binding was determined from the tubes containing only radiolabeled ligand.

[5] = Isomerization to previtamin form / storage stability; type: physicochemical; details: can be stored by a prolonged time in a freezer
[6] = relative to 1α,25-dihydroxyvitamin D3
[7] = relative to 1,25(OH)2D3, in vivo, rats

Ki [4] [nM] | Compound | EC50 (HL-60 cells) [nM] | serum calcium (bone calcium mobilization) ([1]; FIG. 4) [mg/dL] | effect on serum calcium levels across dosages ([1]; all dosages tested, FIG. 4) | intestinal calcium transport activity (everted gut sac) ([2]; rats, FIG. 5) | EC50 [3] [nM] | times less activity than 1α,25-dihydroxyvitamin D3 in HL-60 cell differentiation (HL-60 cells; [6]) [times] | times less potent than 1,25(OH)2D3 in mobilizing calcium from bone [1, 7] | dose dependence of intestinal calcium transport ([2]; across doses, FIG. 5) | times less potent than 1,25(OH)2D3 in stimulating intestinal calcium transport [2, 7] | times less transcriptional activity in bone cells than 1α,25-dihydroxyvitamin D3 [3, 6] [times] | stability (isomerization to previtamin D form) [5]
– | C=C1C(=CC=C2CCCC3(C)C2CCC3C(C)CCCC(C)(C)O)CC(O)CC1O (stereo not drawn) [1,25(OH)2D3, 1α,25-dihydroxyvitamin D3, reference compound] | 2 | 7.6 | increased serum calcium levels at all dosages | 8.3 | 0.2 | – | – | – | – | – | –
0.02 | C=C1/C(=C(C)\C=C2/CCC[C@@]3(C)C2CCC3[C@H](C)CCCC(C)(C)O)C[C@@H](O)C[C@@H]1O (stereo partly drawn) [Me-Cvit, 1α,25-dihydroxy-6-methylvitamin D3] | 80 | 4.3 | – | 4.8 | 4 | ~20 | about 400 times | promotes intestinal calcium transport in a dose dependent manner | greater than 1,000 times | ~10 | very easily isomerizes to its previtamin D form 5
